These results are taken from patent US5496452A, “Substrate regenerating biosensor” (priority 1990, dated 1996).

Data set [1] concerns the target T1, horseradish peroxidase (HRP) (Armoracia rusticana, UniProt P00433).
T1 construct: purchased Biozyme
T1 sequence (P00433 31-353): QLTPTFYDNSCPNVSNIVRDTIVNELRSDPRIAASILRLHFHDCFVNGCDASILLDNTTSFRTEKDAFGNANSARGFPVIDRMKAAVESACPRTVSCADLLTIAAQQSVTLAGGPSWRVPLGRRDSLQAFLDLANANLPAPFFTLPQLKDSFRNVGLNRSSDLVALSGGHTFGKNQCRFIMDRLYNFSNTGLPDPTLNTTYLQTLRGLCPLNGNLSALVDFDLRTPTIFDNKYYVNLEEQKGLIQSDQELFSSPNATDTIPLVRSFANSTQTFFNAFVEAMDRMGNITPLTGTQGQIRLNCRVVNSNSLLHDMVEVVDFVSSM
Description: Ferrocenes as mediators for HRP reduction: ring current at rotating ring disc electrode. As to conditions: ferrocene derivative 0.5 mM, HRP 2.5 μM, disc potential -1.2V; for Relative Current: relative to hydroxymethyl ferrocene = 100%. Format: biochemical. An excerpt: The electrocatalytic activity of HRP as shown in FIGS. 1 and 2 was typically assessed by immersing the rotating ring disc electrode in a buffered solution containing peroxidase and hydroxymethyl ferrocene mediator. The electrode was rotated at a constant speed to control the transport of material to the disc electrode and subsequently out to the ring. A cathodic potential sweep was applied to the glassy carbon disc at 0.1V/S. The platinum ring was held at constant potential of 0V and the current at the ring as a function of the disc potential was measured. Before determination of the peroxidase generated ring current, following electrode immersion, the ring current (background current) was allowed to stabilize (about 5 min). […] The catalytic current was defined as the net reductive current occurring at a disc potential of 0 volts.
The actual profile of the reduction current seen at the ring electrode is a function of the concentrations of the enzyme and substrates, as well as the rotation rate of the electrode, the sweep rate at the disc and the potential of the ring. The magnitude of this current also depends on the fraction of enzymatically generated ferricinium (oxidized ferrocene) which actually reaches the ring.
(§1) Several ferrocenes shown in Table 1 were tested for their ability to act as mediators for HRP reduction.

A short description of data set [2]: Redox potential (Ep1/2) of ferrocene derivatives. As to conditions: ferrocene derivative 0.5 mM; potentials quoted vs SCE. Format: physicochemical.
Source text: A four electrode analogue potentiostat (not shown) which is optionally computer controlled is used to control the potentials at the working electrodes (2) and (3). The disc electrode (2) is connected to a triangular wave generator (not shown) for potential sweeps and the ring electrode (3) is connected to a constant DC voltage source. The electrode rotation is controlled by a Ursar Scientific rotator. All potentials are quoted with respect to a saturated calomel electrode (SCE) with a 1 cm^2 platinum gauze serving as the counter electrode.
as §1

With `O=C([O-])[c-]1cccc1.O=C([O-])[c-]1cccc1.[Fe+2]` [1,1' Dicarboxylate Ferrocene], in data set [1], the “Current (ring current)” value was found to be 0.10 mA and the “Relative Current” value came out at 3%. For the same compound, the “Ep1/2 (redox potential)” value in data set [2] was found to be 420 mv.

Consider `CN(C)Cc1ccc[cH-]1.[Fe+2].c1cc[cH-]c1` [Dimethylaminomethyl Ferrocene], for which, in data set [1], the “Current (ring current)” value is reported as 0.22 mA and the “Relative Current” value is 6%. Further, the “Ep1/2 (redox potential)” value in data set [2] is recorded as 490 mv.

Turning to `OC[c-]1cccc1.[Fe+2].c1cc[cH-]c1` [Hydroxymethyl Ferrocene], in data set [1], the “Current (ring current)” value was found to be 3.8 mA and the “Relative Current” value is 100%. For the same compound, the “Ep1/2 (redox potential)” value in data set [2] is recorded as 210 mv.

On to `O=C([O-])[c-]1cccc1.[Fe+2].c1cc[cH-]c1` [Monocarboxylate Ferrocene], for which, in data set [1], the “Current (ring current)” value is recorded as 0.64 mA and the “Relative Current” value is 17%. In addition, the “Ep1/2 (redox potential)” value in data set [2] is listed as 295 mv.
